These results are taken from US20100120063A1, “GPCR Arrestin Assays” (DISCOVERX CORPORATION, priority 2008, published 2010).

What all share (assay type): cell-based
The target in one test is T1, OPRM1-PK (Homo sapiens, UniProt P35372).
T1 construct: PK (beta-galactosidase ED); expressed in transfected cells; host or cells: U2OS
Nature of the test: Arrestin-EA EFC agonist assay, U2OS cells expressing OPRM1-PK only.

The target in the next test is T2, OPRD1-PK (Homo sapiens, UniProt P41143).
T2 construct: cloning junction ISFEL + gly-ser linker […]; PK1 (mutated ED, H to R); expressed in transfected cells; host or cells: CHO
The test can be described thus: Arrestin-EA EFC agonist assay, CHO cells expressing OPRD1-PK (FIG. 12A).

The next test concerns the target T3, OPRD1-PK and OPRM1 (Homo sapiens, UniProt P35372).
T3 construct: expressed in transfected cells; host or cells: CHO
The test can be described thus: Transactivation assay, CHO cells co-expressing OPRD1-PK and OPRM1 (FIG. 12C).

Test [1] addresses T4, CCKAR-PK (Homo sapiens, UniProt P32238).
T4 construct: PK (beta-galactosidase ED); expressed in transfected cells; host or cells: HEK
T4 sequence (P32238 1-428): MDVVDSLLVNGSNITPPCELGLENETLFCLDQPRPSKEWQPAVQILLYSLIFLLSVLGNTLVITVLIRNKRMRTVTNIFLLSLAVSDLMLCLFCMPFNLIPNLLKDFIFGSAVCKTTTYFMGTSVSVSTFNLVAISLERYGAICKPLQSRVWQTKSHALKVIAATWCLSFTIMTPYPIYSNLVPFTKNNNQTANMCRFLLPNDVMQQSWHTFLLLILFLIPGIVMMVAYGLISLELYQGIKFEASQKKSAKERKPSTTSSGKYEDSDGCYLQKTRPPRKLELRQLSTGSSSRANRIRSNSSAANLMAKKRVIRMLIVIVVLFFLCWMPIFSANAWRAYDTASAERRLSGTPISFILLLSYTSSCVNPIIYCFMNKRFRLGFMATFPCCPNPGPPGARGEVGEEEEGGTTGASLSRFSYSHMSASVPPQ
The test can be described thus: Calcium concentration in HEK cell line expressing CCKAR-PK and arrestin-EA (FIG. 10A, 10C).

In test [2] the target is T4, CCKAR-PK. Nature of the test: Arrestin-EA binding to CCKAR-PK in HEK cell line (FIG. 10B, 10D).
Procedure: (§2) For all assays, 10,000 cells per well were seeded in 20 μL media and incubated overnight in 1% Fetal Bovine Serum and appropriate basal media (F-12 or DMEM). For agonist assays, 5 μL compound was added to cells and incubated at Room Temp. For antagonist assays, 5 μL 5× compound was added to cells and incubated at 37° C./5% CO2 for 10 minutes, after which 5 μL 6× agonist was added and incubated for 60 minutes at 37° C. Arrestin-EA complex formation with the GPCR was detected with 50% (v/v) of PathHunter Detection Reagent (Dx 93-0001, PathHunter reagents are available from DiscoveRx, Corp., Fremont, Calif.) (Lysis buffer active ingredient 2% CHAPS, Emerald II and Galacton star are from Applied Biosystems.) Data was read on Packard Victor 2 or PerkinElmer ViewLux readers and analyzed using GraphPad Prism 4.
Test [3] deals with T5, CHRM2 (Homo sapiens, UniProt P08172).
T5 construct: gly-ser flexible linker […]; expressed in transfected cells; host or cells: CHO
T5 sequence (P08172 1-466): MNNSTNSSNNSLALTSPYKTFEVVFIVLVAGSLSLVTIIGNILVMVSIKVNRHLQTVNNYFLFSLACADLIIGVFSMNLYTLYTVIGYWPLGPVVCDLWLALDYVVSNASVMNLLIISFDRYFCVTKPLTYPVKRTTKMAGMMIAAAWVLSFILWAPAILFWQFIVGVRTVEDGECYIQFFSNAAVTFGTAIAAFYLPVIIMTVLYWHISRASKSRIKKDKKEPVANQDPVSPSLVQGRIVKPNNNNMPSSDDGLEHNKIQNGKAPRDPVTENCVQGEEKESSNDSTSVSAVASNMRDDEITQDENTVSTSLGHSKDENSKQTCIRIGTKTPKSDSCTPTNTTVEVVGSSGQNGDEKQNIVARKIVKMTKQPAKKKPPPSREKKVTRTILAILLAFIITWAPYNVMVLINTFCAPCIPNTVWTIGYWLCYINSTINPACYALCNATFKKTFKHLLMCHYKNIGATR
The test can be described thus: Arrestin-EA / GPCR-PK β-galactosidase EFC screening assay, CHRM2 fused to mutated ED (PK1). As for the experimental part: (§1) To perform the screening assay, 20 μl of cells in complete media or serum-free media (OPTI-MEM® Invitrogen Cat. #31985-070) were plated at 5, 10 and 15×10^3 cells per well in a white 384 well microplate and incubated at 37° C. overnight. Cells are allowed to adhere and grown overnight. Cells may be screened for their response in serum free or complete medium. Serial dilutions are then performed in serum-free medium or buffer for a volume of 25 μl. Depending on the candidate compound, the dilution may occur in the presence of 0.1% BSA or ≦1% final concentration of an organic solvent, e.g., DMSO and methanol. 5 μl of each candidate compound is added per well. The assay mixture is then incubated for 90 min at 37° C. 12.5 μl of the detection reagent is then added. The detection reagent is prepared by combining 1 part Galacton Star Substrate® with 5 parts Emerald II® Solution and 19 parts Path-Hunter Cell Assay Buffer (lysis buffer). The assay mixture is then incubated for 1 h at room temperature. Chemiluminescence is then read at 1.0 sec/well on PMT based instrument or 5-20 sec on an imager.

Test [4] concerns the target T5, CHRM2. The test can be described thus: Arrestin-EA / GPCR-PK EFC screening assay, CHO Arrestin + CHRM2-PK2 (wild-type ED). As for the experimental part: as §1
In a further test the target is T6, OPRM1-PK and CCR5 (Homo sapiens, UniProt P51681).
T6 construct: expressed in transfected cells; host or cells: U2OS
T6 sequence (P51681 whole entry, species assumed): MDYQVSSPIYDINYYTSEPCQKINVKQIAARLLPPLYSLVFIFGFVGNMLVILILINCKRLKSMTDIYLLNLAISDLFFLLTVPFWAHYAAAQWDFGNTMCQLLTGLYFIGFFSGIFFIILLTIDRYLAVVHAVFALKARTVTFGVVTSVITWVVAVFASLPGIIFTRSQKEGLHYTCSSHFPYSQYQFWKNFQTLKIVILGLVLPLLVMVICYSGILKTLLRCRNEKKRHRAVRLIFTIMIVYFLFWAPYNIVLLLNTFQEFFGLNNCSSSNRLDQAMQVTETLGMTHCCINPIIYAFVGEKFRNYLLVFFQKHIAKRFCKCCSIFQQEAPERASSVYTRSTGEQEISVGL
Nature of the test: Transactivation assay, U2OS cells co-expressing OPRM1-PK and CCR5 (FIG. 13B). Conditions: CCR5 coexpressed with OPRM1-PK; FIG. 13 graph B.

For the next test, the target named is T7, OPRM1-PK and CCR2 (Homo sapiens, UniProt P41597).
T7 construct: expressed in transfected cells; host or cells: U2OS
T7 sequence (P41597 whole entry, species assumed): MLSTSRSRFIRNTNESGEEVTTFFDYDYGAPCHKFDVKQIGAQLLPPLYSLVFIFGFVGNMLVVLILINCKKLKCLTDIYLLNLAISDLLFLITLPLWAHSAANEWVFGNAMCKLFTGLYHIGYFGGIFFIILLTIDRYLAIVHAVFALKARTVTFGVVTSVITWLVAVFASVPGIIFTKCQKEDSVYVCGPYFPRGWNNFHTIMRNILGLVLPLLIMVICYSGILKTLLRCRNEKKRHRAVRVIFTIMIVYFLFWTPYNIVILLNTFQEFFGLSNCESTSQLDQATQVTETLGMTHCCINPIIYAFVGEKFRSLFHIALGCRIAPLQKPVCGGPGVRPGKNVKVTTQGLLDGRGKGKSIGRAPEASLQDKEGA
Nature of the test: Transactivation assay, U2OS cells co-expressing OPRM1-PK and CCR2 (FIG. 13A). Conditions: CCR2 coexpressed with OPRM1-PK; FIG. 13 graph A.

[5] abbreviates: curve fit, signal, U2OS OPRM1-PK only.
Where [6] appears, read: curve fit, chemiluminescence signal, FIG. 4.

T1 sequence (P35372 whole entry): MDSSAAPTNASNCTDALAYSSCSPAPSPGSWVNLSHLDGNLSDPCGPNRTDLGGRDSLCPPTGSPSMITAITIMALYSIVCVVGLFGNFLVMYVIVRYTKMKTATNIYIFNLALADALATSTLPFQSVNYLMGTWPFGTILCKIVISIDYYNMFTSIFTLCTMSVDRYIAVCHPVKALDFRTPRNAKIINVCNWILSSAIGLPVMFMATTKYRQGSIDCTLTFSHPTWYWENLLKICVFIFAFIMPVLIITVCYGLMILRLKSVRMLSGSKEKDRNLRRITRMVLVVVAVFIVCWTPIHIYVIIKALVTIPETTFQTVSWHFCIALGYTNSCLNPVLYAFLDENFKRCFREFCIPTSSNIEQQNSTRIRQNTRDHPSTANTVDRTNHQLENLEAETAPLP
T3 sequence (P35372 whole entry, species assumed): as the sequence (P35372 whole entry) above
Procedure for OPRD1-PK and OPRM1: (§3) For all assays, 10,000 cells per well were seeded in 20 μL media and incubated overnight in 1% Fetal Bovine Serum and appropriate basal media (F-12 or DMEM). For agonist assays, 5 μL compound was added to cells and incubated at Room Temp. […] Arrestin-EA complex formation with the GPCR was detected with 50% (v/v) of PathHunter Detection Reagent (Dx 93-0001, PathHunter reagents are available from DiscoveRx, Corp., Fremont, Calif.) (Lysis buffer active ingredient 2% CHAPS, Emerald II and Galacton star are from Applied Biosystems.) Data was read on Packard Victor 2 or PerkinElmer ViewLux readers and analyzed using GraphPad Prism 4.
Procedure for OPRM1-PK and CCR2: as §3
Procedure for OPRM1-PK and CCR5: as §2

Compound `CC(C)C[C@@H](NC(=O)[C@H](Cc1ccccc1)NC(=O)CNC(=O)[C@@H](C)NC(=O)[C@@H](N)Cc1ccc(O)cc1)C(=O)O` [DADLE] registered an HILLSLOPE at OPRM1-PK (U2OS OPRM1-PK only) of 1.483. Moreover, on OPRM1-PK (setting [5]), the BOTTOM stood at 625.6 and the TOP is on record as 17070. At OPRM1-PK (signal to background, U2OS OPRM1-PK only), the “S:B” value was “[S:B = 32.7]”.

With `C[C@@H](NC(=O)[C@@H](N)Cc1ccc(O)cc1)C(=O)NCC(=O)N(C)[C@@H](Cc1ccccc1)C(=O)NCCO` [DAMAGO, [D-Ala2,N-Me-Phe4,Gly5-ol]-enkephalin], the HILLSLOPE on OPRM1-PK (U2OS OPRM1-PK only) came to 0.7069; at OPRD1-PK (FIG. 12A), 1.293; at OPRD1-PK and OPRM1 (FIG. 12C), 1.571. In addition, the “arrestin-EA binding response” value at OPRM1-PK (cells expressing only OPRM1-PK) was “presence of response”. Also, the TOP at OPRM1-PK (setting [5]) is recorded as 10875; at OPRD1-PK (curve fit, signal, FIG. 12A), 2809; on OPRD1-PK and OPRM1 (curve fit, signal, FIG. 12C), 201.4. For the same compound, the “response” value at OPRD1-PK (cells expressing only OPRD1-PK) is listed as “absence of response”. Also, the BOTTOM worked out at 519.8 on OPRD1-PK (curve fit, signal, FIG. 12A); 20.31 at OPRD1-PK and OPRM1 (curve fit, signal, FIG. 12C). Besides, the “transactivation response” value at OPRD1-PK and OPRM1 (cells expressing OPRD1-PK and OPRM1) is reported as “lack of response”. Further, the “S:B” value on OPRD1-PK and OPRM1 (signal to background, FIG. 12C) is “[S:B = 31.9]”.

On to `C[N+](C)(C)CCOC(N)=O` [carbachol], for which the “effect on calcium concentration” value on CCKAR-PK [1] is listed as “some effect”. For the same compound, the “effect on the binding of arrestin-EA to CCKAR-PK” value on CCKAR-PK [2] is “substantially no effect”.

One may read the EC50 as the concentration that produces a half-maximal response. Take `O=C1CCCN1CC#CCN1CCCC1` [oxotremorine]: the “response with PK1” value at CHRM2 [3] (CHRM2, FIG. 4) is “no response”. Further, on CHRM2 [3] (CHRM2 fused to PK1, FIG. 1A), the “fold response with PK1” value came out at 1.4 fold. Moreover, the “S:B PK1” value at CHRM2 [3] (signal to background ratio, CHRM2 fused to PK1, FIG. 1A) worked out at 1.6. Also, on CHRM2 [4] (FIG. 4), the EC50 stood at 6.29 µM, the HILLSLOPE was 1.183 and the “response with PK2” value is on record as “robust response”. Further, on CHRM2 [4] (setting [6]), the BOTTOM is 335.9 and the TOP came to 2037. Moreover, at CHRM2 [4] (signal to background ratio, CHRM2 fused to PK2, FIG. 1B), the “S:B PK2” value is 6.1.

For the compound CCL3: ligand added to CCR5 cells, the “transactivation response” value is listed as “no response” with OPRM1-PK and CCR5; “no response” with OPRM1-PK and CCR2.
